The record followed here is US8338173B2, “Preparation of antigen-presenting human γδ T cells and use in immunotherapy” (University College Cardiff Consultants Limited, priority 2005, dated 2012).

In one experiment the test system is Vγ9Vδ2^+ T cells. The experiment can be described thus: Expression of cell surface APC markers during γδ T cell activation with inhibitors. Conditions: FIG. 19 B.
Experiment [1] relates to M1p58-66-specific CD8^+ αβ T cell clone FLUMA55. The experiment is classed as cell-based, human.
The next experiment concerns naïve CD4^+ αβ T cells. In kind it is cell-based, human.
Experiment [2] has as its system Melp26-35-specific, HLA-A2-restricted CD8^+ αβ T cell clone LAU 337. The experiment is classed as cell-based, human.

With `C[C@H]1CCC/C=C/[C@@H]2C[C@H](O)C[C@H]2[C@H](O)/C=C/C(=O)O1` [brefeldin A], the “expression of cell surface APC markers (MHC II, CD71, CD80, CD86) after TCR-triggering” value in the experiment on Vγ9Vδ2^+ T cells is on record as “inhibited”. Moreover, in experiment [1], the “inhibition of M1 cross-presentation in γδ T-APCs and DCs” value (shortened to “inhibition … in γδ T-APCs and DCs”) was “fully inhibited”; the “responses to M1p58-66 pulsed APCs” value is given as “only partially affected”.
On to `CCN(CC)CCCC(C)Nc1ccnc2cc(Cl)ccc12` (stereo not drawn) [chloroquin], for which the “inhibition … in γδ T-APCs and DCs” value in experiment [1] is no more than 50%.
As for `CC(=O)N[C@@H](CSC(=O)[C@]1([C@@H](O)C(C)C)NC(=O)[C@H](C)[C@@H]1O)C(=O)O` [lactacystin], the “expression of cell surface APC markers (MHC II, CD71, CD80, CD86) after TCR-triggering” value in the experiment on Vγ9Vδ2^+ T cells is “inhibited”. In addition, in experiment [1], the “inhibition … in γδ T-APCs and DCs” value is “fully inhibited”; the “responses to M1p58-66 pulsed APCs” value is “only partially affected”.
Consider phytohemagglutinin [PHA], for which the “Vβ2^+ (%)” value in the experiment on naïve CD4^+ αβ T cells was determined as 9%.

B1: Melan-A: melanocyte/melanoma-differentiation antigen (protein, UniProt Q16655 1-118, looked up)
Melanoma antigen recognized …: MPREDAHFIYGYPKKGHGHSYTTAEEAAGIGILTVILGVLLLIGCWYCRRRNGYRALMDKSLHVGTQCALTRRCPQEGFDHRDSKVSLQEKNCEPVVPNAPPAYEKLSAEQSPPPYSP
Turning to B1, the “IFN-γ production in Melp26-35-specific responder cell clones” value in experiment [2] is listed as “failed to induce IFN-γ production”.
